Experiments:
[1] = tested on: leukocyte (neutrophil) infiltration into the peritoneum, wild-type C57BL/6J mice; test: Mouse model of peritonitis, leukocyte infiltration, wild-type mice; format: in vivo; conditions: 0.8 μM i.v. in 200 μL PBS, without (β15–44)2, 4 hours, n = 7
[2] = tested on: transendothelial migration of leukocytes; conditions: fibrinogen; cited from earlier work

Row | Compound | Infiltration of leukocytes, Fyn inhibitor alone [1] | Transendothelial migration of leukocytes [2]
1 | CN1CCN(CCOc2cc(OC3CCOCC3)c3c(Nc4c(Cl)ccc5c4OCO5)ncnc3c2)CC1 [Saracatinib] | no effect on infiltration of leukocytes | –
2 | fibrinogen | – | promotes transendothelial migration of leukocytes

From publication PMC7179994 (Thrombosis and haemostasis, 2019)
